Laboratory results from paper PMC6687188, “Novel lactate dehydrogenase inhibitors with in vivo efficacy against Cryptosporidium parvum” (PLoS Pathogens, 2019).
Positions of bridges follow the written chain, without caps; N, C: chain ends. Non-standard residues stand in square brackets, D forms with d. Residues, ends and D or L forms follow the SMILES beside them. ξ: configuration not given here. *: point of attachment. ξNMePhe(4-NMe2) = CNC(Cc1ccc(N(C)C)cc1)C(=O)O; Picolinoyl(3-OH) = O=C(c1ncccc1O)*; ξPip(4-oxo) = O=C1CCNC(C(=O)O)C1; Phg = N[CH](C(=O)O)c1ccccc1; Abu = CC[CH](N)C(=O)O

biological target: recombinant CpLDH protein (Cryptosporidium parvum, UniProt Q9GT92, F198L/K295E/R251K)

SMILES	MEAN CpLDH INHIBITION (%)
CC(=O)C1=C(O)C2(O)C(=O)c3c(c(C)c4ccc(C)c(O)c4c3O)CC2C(N)C1=O.CCCCCCCCCCCCOS(=O)(=O)O (centres unmarked) [NSC73495]	-99.50
NC(N)=N/N=C(\c1ccc(Cl)cc1)C1CC1 [NSC74420]	-7.03
O=C(Nc1ccc(Sc2ccc(N=Nc3c(O)c(S(=O)(=O)O)cc4cc(S(=O)(=O)O)ccc34)cc2)cc1)c1ccc(N=Nc2c(O)ccc3c(S(=O)(=O)O)cc(S(=O)(=O)O)cc23)cc1 [NSC76027]	-85.04
CC1=Nc2ccccc2/C1=C\c1c(C)[nH]c2ccccc12 [NSC76747]	-6.97
C[C@]12C=CC(=O)C=C1[C@@H](F)C[C@H]1[C@@H]3CC[C@](O)(C(=O)CO)[C@@]3(C)C[C@H](O)[C@@]12F [NSC77021]	-2.42
CCCCOc1ccc(NC(N)=Nc2ccc(Cl)cc2)cc1 [NSC78365]	-60.70
Cc1ccc([N+](=O)[O-])cc1NC(=O)c1cccc([N+](=O)[O-])c1O [NSC79451]	-40.98
Cc1ccc(NC(=O)c2cccc([N+](=O)[O-])c2O)c(C)c1 [NSC79456]	-17.92
CN(C)c1ccc(/C=C2\C=Cc3ccccc32)cc1 [NSC80087]	-24.95
COc1cc(OC)c(OC)cc1/C=C/c1ccnc2ccccc12 [NSC80756]	-22.71
Cc1ccc(NC(=O)c2cccc([N+](=O)[O-])c2O)c([N+](=O)[O-])c1 [NSC82025]	-16.46
N[C@@H](CSC(c1ccccc1)(c1ccccc1)c1ccccc1)C(=O)O [NSC83265]	-6.04
BrCCC[P+](c1ccccc1)(c1ccccc1)c1ccccc1.[Br-] [NSC84074]	-40.93
C=C1C(=O)O[C@@H]2C[C@@H](C)[C@@H]3C=CC(=O)[C@@]3(C)[C@@H](O)[C@H]12 [NSC85236]	-30.32
Cc1ccc2c(ccc(C=Cc3ccc(O)c4ncccc34)[n+]2C)c1 [NSC85700]	-37.65
Cc1c2c(cc3c1[nH]c1ccccc13)C=NCC2 [NSC86100]	-9.40
Cc1c2ccncc2cc2c1[nH]c1ccccc12 [NSC87206]	-25.74
O=c1cccccc1O [NSC89303]	-7.26
C[C@H]1CCC/C=C/[C@@H]2C[C@H](O)C[C@H]2[C@H](O)/C=C/C(=O)O1 [NSC89671]	-22.45
C=C(C)[C@@H]1CC[C@]2(C)CC[C@]3(C)[C@H](CC[C@@H]4[C@@]5(C)CC[C@H](O)C(C)(C)[C@@H]5CC[C@]43C)[C@@H]12 [NSC90487]	-42.73
CC(C)(C)C1CCC2(CC1)CCN(CCCN1CCOCC1)CC2 [NSC90829]	-2.93
CCCCCCCCCc1c(Cl)nc(Cl)nc1Cl [NSC92510]	-23.70
COc1cc2c3cc1Oc1c(OC)c(OC)cc4c1[C@H](Cc1ccc(cc1)Oc1cc(ccc1O)C[C@H]3N(C)CC2)N(C)CC4 [NSC93135]	-27.33

SMILES	MEAN CpLDH INHIBITION (%)
COc1cc(O)c2c(c1)C(=O)c1cc3c(c(O)c1C2=O)[C@@H](O[C@@H]1O[C@@H](C)[C@H](O)[C@@H](O)[C@H]1OC)[C@H](OC)[C@](C)(O)C3=O [NSC93419]	-51.14
CC1=CC(=C(c2ccc(N)cc2)c2ccc(N)cc2)C=CC1=N.Cl [NSC93739]	-24.21
CC(=O)NCCCCCCNC(C)=O [NSC95580]	-114.38
NC(=S)NN=Cc1ncccc1O [NSC95678]	-37.43
COC1(O)C(=O)c2ccccc2OC1(OC)c1ccccc1 (centres unmarked) [NSC95848]	-17.43
CCN1/C(=C/C(C)=C/c2sc3ccccc3[n+]2CC)Sc2ccccc21.[I-] [NSC96932]	-8.62
CC1(c2cccc3ccccc23)OC(=O)c2ccccc21 (centres unmarked) [NSC97703]	-3.23
CC(=O)c1ccc(Oc2ccc(/C(C)=N\N=C(N)N)cc2)cc1.O=[N+]([O-])O [NSC97911]	-11.97
[O-][Cl+3]([O-])([O-])[O-].c1ccc(-c2csc3c4ccccc4c4ccccc4[n+]23)cc1 [NSC98904]	-42.18
CN1CC[C@]23c4ccccc4N[C@H]1[C@]21CCN(C)[C@H]3Nc2ccccc21 [NSC99016]	-25.29
O=c1ccc2ccc(CBr)cc2o1 [NSC99027]	-71.89
Cn1c(=O)[nH]c2nncnc2c1=O [NSC99733]	-38.11
Cl.Nc1ccc(OCCCc2c(-c3ccccc3)nc(N)[nH]c2=O)cc1 [NSC100856]	-59.57
Nc1ncnc2c([C@@H]3O[C@H](CO)[C@@H](O)[C@H]3O)[nH]nc12 [NSC102811]	-35.09
COC(=O)[C@@H]1c2cc3c(c(O)c2[C@@H](OC)C[C@@]1(C)O)C(=O)c1c(O)cc2c(c1C3=O)O[C@H]1O[C@@]2(C)[C@H](O)[C@@H](N(C)C)[C@@H]1O [NSC102815]	-3.42
CCC1CN2CCc3cc(OC)c(OC)cc3C2CC1CC1c2cc(OC)c(OC)cc2CCN1C(=O)C1CCCN1C(=O)OCc1ccccc1 (centres unmarked) [NSC103248]	-105.50
O=C1OC(c2ccccc2)=N/C1=C\c1ccc(N(CCCl)CCCl)cc1 [NSC104117]	-18.47
CC1(C)N=C(N)N=C(N)N1c1ccc(CCCCc2ccc(Cl)cc2Cl)cc1 [NSC104129]	-53.74
COc1ccc(C(=O)/C(Br)=C\C(=O)[O-])cc1.[Na+] [NSC104801]	-32.70
NC1=C(Br)C(=O)c2ncccc2C1=O [NSC105808]	-67.00
Cc1ccc(N=Nc2c(O)ccc3ccccc23)cc1 [NSC106296]	-44.71
CO[C@H]1Nc2c(ccc(C)c2O)C(=O)N2C=C(/C=C/C(N)=O)C[C@@H]12 [NSC106408]	-29.99
CC(C)CCCC(=O)CCCCCCC(=O)CCN(O)C(=O)C(N)CO.O=S(=O)(O)O (centres unmarked) [NSC106997]	-28.98

SMILES	MEAN CpLDH INHIBITION (%)
O=C1C=C2C=CC3CC2(O1)C1CCCCN31 (centres unmarked) [NSC107415]	-39.15
CCC1CN2CCc3cc(OC)c(OC)cc3C2CC1CC1c2cc(OC)c(OC)cc2CCN1C(=O)C(Cc1c[nH]c2ccccc12)NC(=O)OC(C)(C)C (centres unmarked) [NSC109350]	-1.18
CN1CCCC2C(c3ccccc3)C(C3=NCCCC3)C(c3ccccc3)CC21.Cl (centres unmarked) [NSC109444]	-58.72
N=C1C=C(N)C(=O)c2[nH]c(=O)ccc21 [NSC111041]	-37.64
CC(C)(O)CCC(O)C(C)(O)C1CCC2(O)C3=CC(=O)C4(O)CC(O)C(O)CC4(C)C3CCC12C.CC(C)(O)CCC(O)C(C)(O)C1CCC2(O)C3=CC(=O)C4CC(O)C(O)CC4(C)C3CCC12C (centres unmarked) [NSC115493]	-100.16
Cc1ccc([S+](c2ccccc2)c2cc(C)ccc2C)cc1.O=C(OC(C(=O)[O-])C(OC(=O)c1ccccc1)C(=O)O)c1ccccc1 (centres unmarked) [NSC116693]	-151.85
Cc1ccc2[c](c1)[Sn]([c]1ccccc1)([c]1ccccc1)[c]1cc(C)ccc1N2C [NSC118030]	-56.74
Cc1ccc(C)c2c(N=Nc3ccccc3[N+](=O)[O-])c(O)[nH]c12 [NSC118732]	-7.91
Cc1ccc(Cl)c2c(N=Nc3ccccc3[N+](=O)[O-])c(O)[nH]c12 [NSC118735]	-15.17
CNc1nc(N(C)C)nc(N(C)C)n1 [NSC118742]	-28.34
S=C=NCc1ccccc1 [NSC118976]	-18.30
Cc1c2ccncc2c(C)c2c1sc1ccccc12 [NSC119686]	-46.09
N.N.[Cl][Pt][Cl] [NSC119875]	-45.38
CCCNC1=C(C)C(=O)C2=C(C1=O)[C@H](COC(N)=O)[C@]1(OC)[C@@H]3N[C@@H]3CN21 [NSC123115]	-0.99
COc1ccc2c(O)c3[n+](cc2c1OC)CCc1cc2c(cc1-3)OCO2 [NSC123390]	-31.27
CC1=C\C(O)CC(=O)Cc2nc(co2)C(=O)N2CCC=C2C(=O)OC(C(C)C)C(C)/C=C/C(=O)NC/C=C\1.CCC1NC(=O)C(NC(=O)c2ncccc2O)C(C)OC(=O)C(c2ccccc2)NC(=O)C2CC(=O)CCN2C(=O)C(Cc2ccc(N(C)C)cc2)N(C)C(=O)C2CCCN2C1=O (centres unmarked) [NSC125176] ({Picolinoyl(3-OH)}-T[Abu]P[ξNMePhe(4-NMe2)][ξPip(4-oxo)][Phg]; ester 1-C; configuration not given here)	-0.47
COc1ccc(C2c3cc4c(c(OC)c3CC3OCC(=O)C32)OCO4)cc1OC (centres unmarked) [NSC126727]	-5.88
O=C1C(=O)c2ccccc2C(O)=C1CC=C(Cl)Cl [NSC126771]	-15.17
O=c1cc(O)ccn1[C@@H]1O[C@H](CO)[C@@H](O)[C@H]1O [NSC126849]	-22.36
COc1ccc(-c2cc(=O)c3c(O)cc(O)cc3o2)cc1OC [NSC128305]	-10.13
c1ccc2c(c1)nnn1c3cnccc3nc21 [NSC128734]	-52.88
CCC1=C(C[C@H]2NCCc3cc(OC)c(OC)cc32)C[C@H]2c3cc(OC)c(OC)cc3CCN2C1 [NSC129414]	-16.26
